Assay results taken from ChEMBL document CHEMBL2331461, “Microfluidics assisted synthesis and bioevaluation of sinomenine derivatives as antiinflammatory agents” (Eur J Med Chem, 2013).
The source made the active and inactive calls. The rule behind the calls is not given here.

How the values were obtained:
[1] = system: NIH3T3; assay: Cytotoxicity against mouse NIH/3T3 cells assessed as growth inhibition after 24 hrs by MTT assay; assay type: cell-based
[2] = target: Tumor necrosis factor (Homo sapiens) (UniProt P01375); assay: Inhibition of TNFalpha (unknown origin)-induced NF-kappaB activation in mouse NIH/3T3 cells assessed as inhibition of NF-kappaB binding to DNA at 20 uM after 6 hrs by luciferase reporter gene assay; assay type: cell-based; details: NIH3T3
[3] = system: Mus musculus; assay: Antiinflammatory activity in ICR mouse assessed as inhibition of lambda-carrageenan-induced paw edema at 10 mg/kg, ip administered 2 hrs prior to carrageenan challenge measured after 2 to 18 hrs; assay type: functional, organism-based; parameters: dose 10 mg/kg
[4] = system: Mus musculus; assay: Antiinflammatory activity in ICR mouse assessed as inhibition of lambda-carrageenan-induced paw edema at 15 to 30 mg/kg, ip administered 2 hrs prior to carrageenan challenge measured after 6 to 18 hrs; assay type: functional, organism-based
[5] = Mus musculus, NIH3T3, 24 h, read-out: IC50

Sequence of Tumor necrosis factor (Homo sapiens) (P01375 whole entry): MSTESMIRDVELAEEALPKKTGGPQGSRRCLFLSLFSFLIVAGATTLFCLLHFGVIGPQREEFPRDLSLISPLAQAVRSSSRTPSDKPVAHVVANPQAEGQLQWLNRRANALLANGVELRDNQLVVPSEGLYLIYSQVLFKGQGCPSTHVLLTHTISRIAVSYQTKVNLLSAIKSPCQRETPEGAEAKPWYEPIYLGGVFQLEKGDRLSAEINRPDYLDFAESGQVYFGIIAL

Structure (SMILES) | IC50 [1, 5] [µM] | inhibition [2] | further results
COC(=O)[C@@H]1C(c2ccc(Cl)cc2)=NO[C@H]1c1cc(OC)c(O)c2c1C[C@@H]1[C@@H]3C=C(OC)C(=O)C[C@]23CCN1C | 75.1 | inactive | 
COC(=O)[C@@H]1C(c2ccc(C)cc2)=NO[C@H]1c1cc(OC)c(O)c2c1C[C@@H]1[C@@H]3C=C(OC)C(=O)C[C@]23CCN1C | 78 | Active | 
CCOC(=O)/C=C/c1cc(OC)c(O)c2c1C[C@@H]1[C@@H]3C=C(OC)C(=O)C[C@]23CCN1C | > 100 |  | 
COC1=C[C@@H]2[C@@H]3Cc4ccc(OC)c(O)c4[C@]2(CCN3C)CC1=O [SINOMENINE] | > 100 | inactive | 
COc1ccc2c(c1)c(CC(=O)O)c(C)n2C(=O)c1ccc(Cl)cc1 |  |  | inhibition [3]: Active
CCCCOC(=O)/C=C/c1cc(OC)c(O)c2c1C[C@@H]1[C@@H]3C=C(OC)C(=O)C[C@]23CCN1C | 80 | Active | 
COC(=O)[C@H]1C(c2ccc(Cl)cc2)=NO[C@@H]1c1cc(OC)c(O)c2c1C[C@@H]1[C@@H]3C=C(OC)C(=O)C[C@]23CCN1C | 66.7 | Active | 
CCCCCCOC(=O)/C=C/c1cc(OC)c(O)c2c1C[C@@H]1[C@@H]3C=C(OC)C(=O)C[C@]23CCN1C | 38.9 | Active | inhibition [4]: Active
COC(=O)[C@H]1C(c2ccc(Br)cc2)=NO[C@@H]1c1cc(OC)c(O)c2c1C[C@@H]1[C@@H]3C=C(OC)C(=O)C[C@]23CCN1C | 55.7 | Active | 
COC(=O)[C@H]1C(c2ccccc2)=NO[C@@H]1c1cc(OC)c(O)c2c1C[C@@H]1[C@@H]3C=C(OC)C(=O)C[C@]23CCN1C | > 100 | Active | 
COC1=C[C@H]2[C@H]3Cc4c(/C=C/C(=O)OC(C)(C)C)cc(OC)c(O)c4[C@@]2(CCN3C)CC1=O | > 100 |  | 
COC(=O)[C@H]1C(c2ccc(OC)cc2)=NO[C@@H]1c1cc(OC)c(O)c2c1C[C@@H]1[C@@H]3C=C(OC)C(=O)C[C@]23CCN1C | > 100 | Active | 
COC(=O)/C=C/c1cc(OC)c(O)c2c1C[C@@H]1[C@@H]3C=C(OC)C(=O)C[C@]23CCN1C | > 100 |  | 
COC(=O)[C@H]1C(c2cccc(C)c2)=NO[C@@H]1c1cc(OC)c(O)c2c1C[C@@H]1[C@@H]3C=C(OC)C(=O)C[C@]23CCN1C | > 100 | Active | 
COC(=O)[C@@H]1C(c2cccc(C)c2)=NO[C@H]1c1cc(OC)c(O)c2c1C[C@@H]1[C@@H]3C=C(OC)C(=O)C[C@]23CCN1C | 78.3 | Active | 
COCCOC(=O)/C=C/c1cc(OC)c(O)c2c1C[C@@H]1[C@@H]3C=C(OC)C(=O)C[C@]23CCN1C | > 100 |  | 
COC(=O)[C@H]1C(c2cccc(Cl)c2)=NO[C@@H]1c1cc(OC)c(O)c2c1C[C@@H]1[C@@H]3C=C(OC)C(=O)C[C@]23CCN1C | 71.3 | Active | 
COC(=O)[C@@H]1C(c2ccc(Br)cc2)=NO[C@H]1c1cc(OC)c(O)c2c1C[C@@H]1[C@@H]3C=C(OC)C(=O)C[C@]23CCN1C | 53.1 | inactive | 
COC(=O)[C@@H]1C(c2ccccc2)=NO[C@H]1c1cc(OC)c(O)c2c1C[C@@H]1[C@@H]3C=C(OC)C(=O)C[C@]23CCN1C | > 100 | inactive | 
COC(=O)/C(C)=C/c1cc(OC)c(O)c2c1C[C@@H]1[C@@H]3C=C(OC)C(=O)C[C@]23CCN1C | > 100 |  | 
COC1=C[C@H]2[C@H]3Cc4c(/C=C/C(=O)OCC(C)C)cc(OC)c(O)c4[C@@]2(CCN3C)CC1=O | > 100 |  | 
CCCCC(CC)COC(=O)/C=C/c1cc(OC)c(O)c2c1C[C@@H]1[C@@H]3C=C(OC)C(=O)C[C@]23CCN1C (some centres undefined) | 4.8 |  | 
COC1=C[C@H]2[C@H]3Cc4c(/C=C/C(=O)OC5CCCCC5)cc(OC)c(O)c4[C@@]2(CCN3C)CC1=O |  |  | IC50 ([1]; nih3t3): ND(Insoluble)
COC(=O)[C@@H]1C(c2ccc(OC)cc2)=NO[C@H]1c1cc(OC)c(O)c2c1C[C@@H]1[C@@H]3C=C(OC)C(=O)C[C@]23CCN1C | 83.9 | inactive | 
COC(=O)[C@H]1C(c2ccc(C)cc2)=NO[C@@H]1c1cc(OC)c(O)c2c1C[C@@H]1[C@@H]3C=C(OC)C(=O)C[C@]23CCN1C | 80.7 | Active | 
COC(=O)[C@@H]1C(c2cccc(Cl)c2)=NO[C@H]1c1cc(OC)c(O)c2c1C[C@@H]1[C@@H]3C=C(OC)C(=O)C[C@]23CCN1C | 78.3 | inactive | 
